Test results from US20240366639A1, “HETEROCYCLIC GLP-1 AGONISTS” (GASHERBRUM BIO, INC., priority 2021, published 2024).
Like-named read-outs stand apart in the source and are kept apart here.

Target: T1, GLP-1 Receptor (GLP1R) (Homo sapiens, UniProt P43220)
T1 construct: host or cells: HEK293/GLP1R/CRE-LUC
Test: GLP-1R agonist cAMP stimulation assay (Method 3)
Type: cell-based
Details: HEK293/GLP1R/CRE-LUC cells (HDB), Method 3, 30 min incubation
Experimental: Method 3: Activation of GLP-1 receptor is known to stimulate cyclic AMP (cAMP) production in cells which indicates primary coupling to the Gαs subunit of the G protein heterotrimeric complex.
To optimize functional activity directed toward Gαs coupling, a HEK293/CRE-Luc cell line developed by HDB stably expressing the GLP-1 Receptor was used, 200× concentration of compound working solutions were prepared (Agilent Technologies Bravo) with 1/2 log serial dilution in 384-well Echo LDV plate (Labcyte, Cat #LP-0200). 50 nL/well 200× concentration of compound working solutions were moved to 384-well white low volume plate (Greiner, Cat #784075) using Labcyte ECHO550. 1×10^5 cells/mL HEK293/GLP1R/CRE-LUC(HD Biosciences) cell suspensions prepared with assay buffer [DPBS containing 0.5 mM IBMX (Sigma, Cat #15879) and 0.1% BSA (GENVIEW, Cat #FA016-100 g)], 10 μL cell suspensions were added to each well of previous generated assay plate which already contains 50 nL compound at 200× concentration using ThermoFisher Multidrop Combi (1000 cells/well). Seal the plate and incubate at 37° C. with 5% CO2 for 30 min.
After incubation the cAMP assay signal was generated using cAMP dynamic 2 Kit (Cisbio). 5 μL cAMP-d2 working solution was added to each well, followed with 5 μL Anti-cAMP antibody-cryptate working solution added to each well using ThermoFisher Multidrop Combi. Incubate at room temperature for 1 hour protected from light. Read the fluorescence at 665 nm and 615 nm with Reader PerkinElmer EnVision.

[1] = read-out: GLP1R cAMP Stimulation DR: EC50 (nM) [Species: Human, Assay Cell Line: HDB]
[2] = read-out: GLP1R cAMP Stimulation DR: pEC50 (M) [Species: Human, Assay Cell Line: HDB] (converted)

T1 sequence (P43220 24-463): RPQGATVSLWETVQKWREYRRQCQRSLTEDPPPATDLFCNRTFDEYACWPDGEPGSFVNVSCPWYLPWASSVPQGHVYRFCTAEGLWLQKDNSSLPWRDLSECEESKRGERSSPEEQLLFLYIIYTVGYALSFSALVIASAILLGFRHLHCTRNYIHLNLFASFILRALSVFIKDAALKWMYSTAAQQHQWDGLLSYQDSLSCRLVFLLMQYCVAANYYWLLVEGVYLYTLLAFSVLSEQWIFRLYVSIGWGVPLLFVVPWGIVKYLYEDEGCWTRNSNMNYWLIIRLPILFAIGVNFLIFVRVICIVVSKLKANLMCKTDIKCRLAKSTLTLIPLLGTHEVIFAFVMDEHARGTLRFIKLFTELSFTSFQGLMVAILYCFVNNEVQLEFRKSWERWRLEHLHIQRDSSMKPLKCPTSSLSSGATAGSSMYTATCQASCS

Row | Structure (SMILES) | EC50 [1] | EC50 [2]
1 | Cc1cc(-n2nc3c(c2-n2ccn(-c4ccc(P(=O)(C(C)C)C(C)C)cc4)c2=O)[C@H](C)N(C(=O)c2cc4cc(C5CCOCC5)ccc4n2[C@@]2(c4noc(=O)[nH]4)C[C@@H]2C)CC3)cc(C)c1F [Compound 128a, 3-((1S,2S)-1-(2-((S)-3-(3-(4-(diisopropylphosphoryl)phenyl)-2-oxo-2,3-dihydro-1H-imidazol-1-yl)-2-(4-fluoro-3,5-dimethylphenyl)-4-methyl-4,5,6,7-tetrahydro-2H-pyrazolo[4,3-c]pyridine-5-carbonyl)-5-(tetrahydro-2H-pyran-4-yl)-1H-indol-1-yl)-2-methylcyclopropyl)-1,2,4-oxadiazol-5(4H)-one] | < 0.1 nM | ≤ 0.1 nM
2 | CCP(=O)(CC)c1ccc(-n2ccn(-c3c4c(nn3-c3cc(C)c(F)c(C)c3)CCN(C(=O)c3cc5cc(C6CCOCC6)ccc5n3[C@@]3(c5noc(=O)[nH]5)C[C@@H]3C)[C@H]4C)c2=O)cc1 [Compound 129a, 3-((1S,2S)-1-(2-((S)-3-(3-(4-(diethylphosphoryl)phenyl)-2-oxo-2,3-dihydro-1H-imidazol-1-yl)-2-(4-fluoro-3,5-dimethylphenyl)-4-methyl-4,5,6,7-tetrahydro-2H-pyrazolo[4,3-c]pyridine-5-carbonyl)-5-(tetrahydro-2H-pyran-4-yl)-1H-indol-1-yl)-2-methylcyclopropyl)-1,2,4-oxadiazol-5(4H)-one] | < 0.1 nM | ≤ 0.1 nM
3 | CNc1cc(-n2ccn(-c3c4c(nn3-c3cc(C)c(F)c(C)c3)CCN(C(=O)c3cc5cc(C6CCOCC6)ccc5n3[C@@]3(c5noc(=O)[nH]5)C[C@@H]3C)[C@H]4C)c2=O)ccc1P(=O)(C1CC1)C1CC1 [Compound 132a, 3-((1S,2S)-1-(2-((S)-3-(3-(4-(dicyclopropylphosphoryl)-3-(methylamino)phenyl)-2-oxo-2,3-dihydro-1H-imidazol-1-yl)-2-(4-fluoro-3,5-dimethylphenyl)-4-methyl-4,5,6,7-tetrahydro-2H-pyrazolo[4,3-c]pyridine-5-carbonyl)-5-(tetrahydro-2H-pyran-4-yl)-1H-indol-1-yl)-2-methylcyclopropyl)-1,2,4-oxadiazol-5(4H)-one] | 0.1 to 0.2 nM | 0.1 to 1 nM
4 | CCP(=O)(CC)c1ccc(-n2ccn(-c3c4c(nn3-c3cc(C)c(F)c(C)c3)CCN(C(=O)c3cc5cc(C6CCC(F)(F)CC6)ccc5n3[C@@]3(c5noc(=O)[nH]5)C[C@@H]3C)[C@H]4C)c2=O)cc1NC [Compound 133a, 3-((1S,2S)-1-(2-((S)-3-(3-(4-(diethylphosphoryl)-3-(methylamino)phenyl)-2-oxo-2,3-dihydro-1H-imidazol-1-yl)-2-(4-fluoro-3,5-dimethylphenyl)-4-methyl-4,5,6,7-tetrahydro-2H-pyrazolo[4,3-c]pyridine-5-carbonyl)-5-(4,4-difluorocyclohexyl)-1H-indol-1-yl)-2-methylcyclopropyl)-1,2,4-oxadiazol-5(4H)-one] | 0.1 to 0.2 nM | 0.1 to 1 nM
5 | CCP(=O)(CC)c1ccc(-n2ccn(-c3c4c(nn3-c3cc(C)c(F)c(C)c3)CCN(C(=O)c3cc5cc(C6CCOCC6)ccc5n3C3(c5noc(=O)[nH]5)CC3)[C@H]4C)c2=O)cc1NC [Compound 135a, (S)-3-(1-(2-(3-(3-(4-(diethylphosphoryl)-3-(methylamino)phenyl)-2-oxo-2,3-dihydro-1H-imidazol-1-yl)-2-(4-fluoro-3,5-dimethylphenyl)-4-methyl-4,5,6,7-tetrahydro-2H-pyrazolo[4,3-c]pyridine-5-carbonyl)-5-(tetrahydro-2H-pyran-4-yl)-1H-indol-1-yl)cyclopropyl)-1,2,4-oxadiazol-5(4H)-one] | < 0.1 nM | ≤ 0.1 nM
6 | CCP(=O)(CC)c1ccc(-n2ccn(-c3c4c(nn3-c3cc(C)c(F)c(C)c3)CCN(C(=O)c3cc5cc(C6CCOCC6)ccc5n3[C@@]3(c5noc(=O)[nH]5)C[C@@H]3C)[C@H]4C)c2=O)cc1OC(F)F [Compound 136a, 3-((1S,2S)-1-(2-((S)-3-(3-(4-(diethylphosphoryl)-3-(difluoromethoxy)phenyl)-2-oxo-2,3-dihydro-1H-imidazol-1-yl)-2-(4-fluoro-3,5-dimethylphenyl)-4-methyl-4,5,6,7-tetrahydro-2H-pyrazolo[4,3-c]pyridine-5-carbonyl)-5-(tetrahydro-2H-pyran-4-yl)-1H-indol-1-yl)-2-methylcyclopropyl)-1,2,4-oxadiazol-5(4H)-one] | 0.2 to 0.5 nM | 0.1 to 1 nM
7 | CCP(=O)(CC)c1ccc(-n2ccn(-c3c4c(nn3-c3cc(C)c(F)c(C)c3)CCN(C(=O)c3cc5cc(C6CCOCC6)ccc5n3[C@@]3(c5noc(=O)[nH]5)C[C@@H]3C)[C@H]4C)c2=O)cc1N [Compound 138a, 3-((1S,2S)-1-(2-((S)-3-(3-(3-amino-4-(diethylphosphoryl)phenyl)-2-oxo-2,3-dihydro-1H-imidazol-1-yl)-2-(4-fluoro-3,5-dimethylphenyl)-4-methyl-4,5,6,7-tetrahydro-2H-pyrazolo[4,3-c]pyridine-5-carbonyl)-5-(tetrahydro-2H-pyran-4-yl)-1H-indol-1-yl)-2-methylcyclopropyl)-1,2,4-oxadiazol-5(4H)-one] | < 0.1 nM | ≤ 0.1 nM
8 | CCP(=O)(CC)c1ncc(-n2ccn(-c3c4c(nn3-c3cc(C)c(F)c(C)c3)CCN(C(=O)c3cc5cc(C6CCOCC6)ccc5n3[C@@]3(c5noc(=O)[nH]5)C[C@@H]3C)[C@H]4C)c2=O)cc1NC [Compound 139a, 3-((1S,2S)-1-(2-((S)-3-(3-(6-(diethylphosphoryl)-5-(methylamino)pyridin-3-yl)-2-oxo-2,3-dihydro-1H-imidazol-1-yl)-2-(4-fluoro-3,5-dimethylphenyl)-4-methyl-4,5,6,7-tetrahydro-2H-pyrazolo[4,3-c]pyridine-5-carbonyl)-5-(tetrahydro-2H-pyran-4-yl)-1H-indol-1-yl)-2-methylcyclopropyl)-1,2,4-oxadiazol-5(4H)-one] | < 0.1 nM | ≤ 0.1 nM
9 | CCP(=O)(CC)c1c(C)cc(-n2ccn(-c3c4c(nn3-c3cc(C)c(F)c(C)c3)CCN(C(=O)c3cc5cc(C6CCOCC6)ccc5n3[C@@]3(c5noc(=O)[nH]5)C[C@@H]3C)[C@H]4C)c2=O)cc1NC [Compound 140a, 3-((1S,2S)-1-(2-((S)-3-(3-(4-(diethylphosphoryl)-3-methyl-5-(methylamino)phenyl)-2-oxo-2,3-dihydro-1H-imidazol-1-yl)-2-(4-fluoro-3,5-dimethylphenyl)-4-methyl-4,5,6,7-tetrahydro-2H-pyrazolo[4,3-c]pyridine-5-carbonyl)-5-(tetrahydro-2H-pyran-4-yl)-1H-indol-1-yl)-2-methylcyclopropyl)-1,2,4-oxadiazol-5(4H)-one] | 0.5 to 5 nM | 0.1 to 1 nM
10 | CNc1cc(-n2ccn(-c3c4c(nn3-c3cc(C)c(F)c(C)c3)CCN(C(=O)c3cc5cc(C6CCOCC6)ccc5n3[C@@]3(c5noc(=O)[nH]5)C[C@@H]3C)[C@H]4C)c2=O)ccc1P(=O)(C(C)C)C(C)C [Compound 141a, 3-((1S,2S)-1-(2-((S)-3-(3-(4-(diisopropylphosphoryl)-3-(methylamino)phenyl)-2-oxo-2,3-dihydro-1H-imidazol-1-yl)-2-(4-fluoro-3,5-dimethylphenyl)-4-methyl-4,5,6,7-tetrahydro-2H-pyrazolo[4,3-c]pyridine-5-carbonyl)-5-(tetrahydro-2H-pyran-4-yl)-1H-indol-1-yl)-2-methylcyclopropyl)-1,2,4-oxadiazol-5(4H)-one] | < 0.1 nM | ≤ 0.1 nM
11 | CCP(=O)(CC)c1c(F)cc(-n2ccn(-c3c4c(nn3-c3cc(C)c(F)c(C)c3)CCN(C(=O)c3cc5cc(C6CCOCC6)ccc5n3[C@@]3(c5noc(=O)[nH]5)C[C@@H]3C)[C@H]4C)c2=O)cc1NC [Compound 143a, 3-((1S,2S)-1-(2-((S)-3-(3-(4-(diethylphosphoryl)-3-fluoro-5-(methylamino)phenyl)-2-oxo-2,3-dihydro-1H-imidazol-1-yl)-2-(4-fluoro-3,5-dimethylphenyl)-4-methyl-4,5,6,7-tetrahydro-2H-pyrazolo[4,3-c]pyridine-5-carbonyl)-5-(tetrahydro-2H-pyran-4-yl)-1H-indol-1-yl)-2-methylcyclopropyl)-1,2,4-oxadiazol-5(4H)-one] | 0.1 to 0.2 nM | 0.1 to 1 nM
12 | CCP(=O)(CC)c1cc(F)c(-n2ccn(-c3c4c(nn3-c3cc(C)c(F)c(C)c3)CCN(C(=O)c3cc5cc(C6CCOCC6)ccc5n3[C@@]3(c5noc(=O)[nH]5)C[C@@H]3C)[C@H]4C)c2=O)cc1NC [Compound 144a, 3-((1S,2S)-1-(2-((S)-3-(3-(4-(diethylphosphoryl)-2-fluoro-5-(methylamino)phenyl)-2-oxo-2,3-dihydro-1H-imidazol-1-yl)-2-(4-fluoro-3,5-dimethylphenyl)-4-methyl-4,5,6,7-tetrahydro-2H-pyrazolo[4,3-c]pyridine-5-carbonyl)-5-(tetrahydro-2H-pyran-4-yl)-1H-indol-1-yl)-2-methylcyclopropyl)-1,2,4-oxadiazol-5(4H)-one] | < 0.1 nM | ≤ 0.1 nM
